We go through 18 molecules from US9682931B2, “Aryloyl(oxy or amino)pentafluorosulfanylbenzene compound, pharmaceutically acceptable salt thereof, and prodrugs thereof” (UBE INDUSTRIES, LTD., priority 2013, dated 2017).

Values after ≈ are worked out from the molar mass of the structure shown. Like-named read-outs stand apart in the source and are kept apart here. Marks after values point to notes of the source that are not given here.

For experiment [1], the system named is Salmonella typhimurium TA98 strain and TA100 strain. As to the kind of experiment: Growth inhibitory action and bactericidal action on salmonella (preincubation method, with and without S9 mix). Conditions: for Bactericidal action: lowest concentration at which all bacterial cells were killed. In kind it is cell-based. On the procedure:
Growth inhibitory action and bactericidal action on salmonella
1) Preparation of Test-Substance Solution
Test substances (compounds listed in Table 1) each were prepared by dissolving it in DMSO when used. Preparation was made in such a manner that the highest dose became 5000 μg/plate and the dose lower than this was prepared by a dilution method. In the table, reference numerals of individual compounds correspond to the numbers of the individual compounds synthesized in the above Examples (the same applies to the following Tables).
Salmonella typhimurium TA98 strain and TA100 strain were used.
These were supplied by Japan Bioassay Research Center, proliferated and examined for genetic properties and other properties in accordance with customary methods, in advance. After these strains were confirmed to have these properties, they are cryopreserved (−80° C.) with a DMSO-added medium; and thawed for use in each test.
3) A cryopreserved strain was thawed and inoculated in a 2.5% aqueous nutrient broth (OXOID No. 2) solution and cultured while shaking at 37° C. for 7 hours to obtain a cell suspension, which was subjected to tests.
A minimum glucose agar plate medium (Vital Media AMT-S, manufactured by Kyokuto Pharmaceutical Industrial Co., Ltd.) was used.
The top agar was prepared when used by blending an aqueous solution of 0.5 mM L-histidine and 0.5 mM D-(+)-biotin with an aqueous solution prepared by adding Bacto Agar (Difco) (0.6%) and sodium chloride (0.5%).
S9 was purchased from Kikkoman; whereas a cofactor was previously prepared in accordance with a method known in the art. They were mixed in a customary method to prepare S9 mix.
Using a test system containing S9 mix and a test system containing no S9 mix, a test was carried out in accordance with a preincubation method. As the dose selection, the highest dose was specified as […], which was then serially diluted in a common ratio of 2 to prepare a total of 15 doses to be used in the test.
To a sterile test tube, a test solution (0.1 mL) and 0.1 M Na-phosphate buffer or S9 mix (0.5 mL) and a cell suspension (0.1 mL) were sequentially dispensed. Pre-incubation was carried out at 37° C. for 20 minutes while shaking. After completion of the pre-incubation, top agar (2 mL) kept warm at 45° C. was added, mixed and placed on a minimum glucose agar plate medium. After solidification, the plate was turned upside down and cultured at 37° C. for 48 hours.
After completion of the culture, the state of microbial growth was observed by a stereomicroscope. After a precipitate on the plate was observed, revertant colonies were counted by the naked eye or a colony counter.
7) Criteria for Determination
Growth of both TA98 and TA100 strains was examined in the presence or absence of S9 mix. Among the resultant concentrations at which growth was inhibited, the lowest concentration was specified as the growth inhibitory concentration. Similarly, the bactericidal concentration was specified as the lowest concentration at which all bacterial cells were killed.

For experiment [2], the system named is K562 human leukemia-derived cell lines. Put plainly: K562 human leukemia cell-proliferation inhibition test. In kind it is cell-based. On the procedure: K562 Human Leukemia Cell-Proliferation Inhibition Test
A cell proliferation inhibition test using K562 cells was performed. The activity in the presence of a test substance was compared to the activity in the presence of green tea polyphenol (GTP). The materials used in the test are as follows.
Cells: K562 human leukemia-derived cell lines (DS Pharma Biomedical Co., Ltd.)
Control Substance: Green Tea Polyphenols, abbreviation: GTP (LKT Laboratories, Inc.)
Culture solution: 10% equine serum-supplemented RPMI1640 medium
A test substance and a control substance were used by dissolving each of them in DMSO. To a solution (0.99 mL) containing K562 cells in a cell concentration of 20,000 cells/mL, a test substance solution or a control substance solution (0.01 mL) was added and the cells were cultured. Seventy two hours later, a part of the cells was stained with trypan blue and viable cells were counted by a counting chamber.
In Table 2, “IC50” denotes the sample concentration inhibiting 50% of cell proliferation

Experiment [3] has as its system TNF-α mRNA expression in RBL-2H3 cells. Put plainly: Validation test in RBL-2H3 cell: TNF-α mRNA expression by antigen stimulation (Real-time PCR). The following applies: 10 μmol/L, untreated control as 100. In kind it is cell-based, Rat. How it is done: 2. Validation Test in RBL-2H3 Cell
(Effect on Inflammation Mediator mRNA Expression by Antigen Stimulation)
After a cell model for an allergic reaction, RBL-2H3 cells, were stimulated by an antigen, mRNA expression level of a typical inflammation mediator, TNF-α, in the cell was measured by a Real-time PCR method. In this manner, a confirmation test for anti-inflammatory effect of Compound 3 was performed.
A test substance (Compound 3) (50 mg) was dissolved by adding 50 vol % ethanol (1 mL) to this to obtain an ethanol solution having a concentration of 50 mg/mL. The resultant solution was diluted with a medium. […] As a control (for comparison), Wortmannin (10 μM) was used. Herein, the concentrations were all indicated as the concentrations in cell supernatants.
RBL-2H3 cells were sensitized with anti-DNP-IgE antibody for 2 hours. A medium or a test solution was added and heat was applied at 37° C. for 10 minutes and then, a DNP-HSA solution was added. A reaction was carried out at 37° C. for 30 minutes. After completion of the reaction, total RNA was extracted from a cell fraction and cDNA was synthesized by use of Random Primer and Reverse Transcriptase. After a specific primer for a desired gene (ITNF-α,β-actin) was added, a Real-time PCR method was carried out in accordance with SYBR Green method using the resultant cDNA as a template to determine the expression level of mRNA. The expression ratio of the desired gene relative to a housekeeping gene, β-actin, was calculated. In this manner, a change in expression level relative to an untreated control was calculated.
Main test conditions and outline of the operation will be described below.
Cell: Rat basophil leukemic cell, RBL-2H3 [Human Sciences Foundation]
Antigen stimulation: Anti-DNP-IgE antibody, DNP labeled albumin
[Sigma-Aldrich Corporation]
Desired genes: IL-4, MCP-1, TNF-α, β-actin (housekeeping gene)
Measurement apparatus: StepOnePlus Real-Time PCR System [Life
Technologies Corporation] Measurement conditions: 95° C. (20 sec)→{95° C. (3 sec)→60° C. (30 sec)}×40 cycles
mRNA expression level (%) was obtained based on the expression level of the untreated control as 100.

[4] abbreviates: TA98 and TA100, presence or absence of S9 mix.
Where [5] appears, read: lowest concentration at which growth was inhibited, TA98 and TA100, presence or absence of S9 mix.
Setting [6] is: Homo sapiens, K562, 72 h, K562 cells, 72 hours, viable cells counted with trypan blue, read-out: IC50.

What is called IC50 is the midpoint of a concentration-inhibition curve.

Turning to `CC(=O)Oc1cc(C(=O)Nc2ccc(S(F)(F)(F)(F)F)cc2)cc(OC(C)=O)c1OC(C)=O` [Compound 9, 4-(3,4,5-triacetoxybenzoylamino)pentafluorosulfanylbenzene], the Bactericidal action in experiment [1] (setting [4]) amounted to 625 μg/plate. In experiment [1] (setting [5]), this molecule yielded a Growth inhibition of 156 μg/plate. Besides, the 50% inhibitory concentration (IC50) in experiment [2] (setting [6]) is 1.2 µg/mL (≈ 2.41 µM). For `O=C(Nc1cccc(S(F)(F)(F)(F)F)c1)c1cc(O)c(O)c(O)c1` [Compound 11, 3-(3,4,5-trihydroxybenzoylamino)pentafluorosulfanylbenzene] the same measures were 625 μg/plate, 78.1 μg/plate and 1.5 µg/mL (≈ 4.04 µM). For `O=C(/C=C/c1ccccc1)Nc1ccc(S(F)(F)(F)(F)F)cc1` [Compound 35, 4-(cinnamoylamino)pentafluorosulfanylbenzene] the same measures were greater than 2500 μg/plate, 39.1 μg/plate and 0.2 µg/mL (≈ 0.573 µM).

`O=C(/C=C/c1ccc(O)c(O)c1)Nc1ccc(S(F)(F)(F)(F)F)cc1` [Compound 5, 4-(3,4-dihydroxycinnamoylamino)pentafluorosulfanylbenzene]: the Bactericidal action in experiment [1] (setting [4]) came out at 78.1 μg/plate. Also, in experiment [1] (setting [5]), the Growth inhibition was determined as 19.5 μg/plate. Besides, the half-maximal inhibitory concentration (IC50) in experiment [2] (K562 cells, 72 hours, viable cells counted with trypan blue) turned out to be 0.36 µg/mL (≈ 0.944 µM).

The molecule `CC(=O)Oc1ccc(/C=C/C(=O)Oc2ccc(S(F)(F)(F)(F)F)cc2)cc1OC(C)=O` [Compound 22, 4-(3,4-diacetoxycinnamoyloxy)pentafluorosulfanylbenzene] yielded a Bactericidal action in experiment [1] (setting [4]) of 156 μg/plate. Further, in experiment [1] (setting [5]), the Growth inhibition is listed as 156 μg/plate.

As to `O=C(Nc1cc(S(F)(F)(F)(F)F)ccc1O)c1cc(O)c(O)c(O)c1` [Compound 12, 3-(3,4,5-trihydroxybenzoylamino)-4-hydroxypentafluorosulfanylbenzene], the Bactericidal action in experiment [1] (setting [4]) amounted to 1250 μg/plate. For the same molecule, the Growth inhibition in experiment [1] (setting [5]) turned out to be 313 μg/plate. On to `COC[C@H]1OC(=O)c2coc3c2[C@@]1(C)C1=C(C3=O)[C@@H]2CCC(=O)[C@@]2(C)C[C@H]1OC(C)=O` [Wortmannin, reference compound], for which the “TNF-α mRNA expression level” value in experiment [3] came out at 45%.

As to `CC(=O)Oc1ccc(/C=C/C(=O)Nc2ccc(S(F)(F)(F)(F)F)cc2)cc1OC(C)=O` [Compound 4, 4-(3,4-diacetoxycinnamoylamino)pentafluorosulfanylbenzene], the Growth inhibition in experiment [1] (TYPHIMURIUM) is <39.1*^1 μg/plate. The Bactericidal action in experiment [1] (setting [4]) stood at 156 μg/plate. The concentration for half-maximal inhibition (IC50) in experiment [2] (setting [6]) was found to be 2.2 µg/mL (≈ 4.73 µM). Take `COc1cc(/C=C/C(=O)Nc2ccc(S(F)(F)(F)(F)F)cc2)ccc1OC(C)=O` [Compound 20, 4-(4-acetoxy-3-methoxycinnamoylamino)pentafluorosulfanylbenzene]: the Growth inhibition in experiment [1] (setting [5]) was determined as 156 μg/plate. Also, in experiment [2] (setting [6]), the IC50 stood at 1.7 µg/mL (≈ 3.89 µM). As to `CC(=O)Oc1cc(/C=C/C(=O)Nc2ccc(S(F)(F)(F)(F)F)cc2)cc(OC(C)=O)c1OC(C)=O` [Compound 25, 4-(3,4,5-triacetoxycinnamoylamino)pentafluorosulfanylbenzene], the IC50 in experiment [2] (setting [6]) was found to be 6.3 µg/mL (≈ 12 µM). Same read-out and setting: as for `COc1cc(/C=C/C(=O)Nc2ccc(S(F)(F)(F)(F)F)cc2)ccc1OCC=C(C)C` [Compound 37, 4-(4-(3-methyl-2-butenyloxy)-3-methoxycinnamoylamino)pentafluorosulfanylbenzene], the figure is 4.8 µg/mL (≈ 10.4 µM). Regarding `O=C(Nc1ccc(S(F)(F)(F)(F)F)cc1NC(=O)c1cc(O)c(O)c(O)c1)c1cc(O)c(O)c(O)c1` [Compound 14, 3,4-bis(3,4,5-trihydroxybenzoylamino)pentafluorosulfanylbenzene], the Bactericidal action in experiment [1] (setting [4]) is on record as 1250 μg/plate. The molecule also yielded a Growth inhibition in experiment [1] (setting [5]) of 625 μg/plate. Turning to `O=C(Nc1ccc(S(F)(F)(F)(F)F)cc1)c1cccc(O)n1` [Compound 66, 4-(2-hydroxypyridin-6-yl)carbonylaminopentafluorosulfanylbenzene], the concentration for half-maximal inhibition (IC50) in experiment [2] (setting [6]) came out at 2.3 µg/mL (≈ 6.76 µM). In turn, `O=C(/C=C/c1ccc2c(c1)OCO2)Nc1ccc(S(F)(F)(F)(F)F)cc1` [Compound 19, 4-(3,4-methylenedioxycinnamoylamino)pentafluorosulfanylbenzene] came in with an IC50 in experiment [2] (Homo sapiens, K562, 72 h) of 0.66 µg/mL (≈ 1.68 µM). As to `C=CC(C)Oc1ccc(/C=C/C(=O)Nc2ccc(S(F)(F)(F)(F)F)cc2)cc1OC` (centres unmarked) [Compound 44, 4-(4-(1-methyl-2-propenyloxy)-3-methoxycinnamoylamino)pentafluorosulfanylbenzene], the IC50 in experiment [2] (setting [6]) turned out to be 1 µg/mL (≈ 2.22 µM).

With `O=C(Nc1ccc(S(F)(F)(F)(F)F)cc1)c1ncc[nH]1` [Compound 78, 4-(imidazol-2-yl)carbonylaminopentafluorosulfanylbenzene], in experiment [2] (setting [6]), the IC50 turned out to be 3.4 µg/mL (≈ 10.9 µM).

Turning to `O=C(Nc1ccc(S(F)(F)(F)(F)F)cc1)n1cccc1` [Compound 80, 4-(pyrrol-1-yl)carbonylaminopentafluorosulfanylbenzene], the IC50 in experiment [2] (setting [6]) stood at 4.9 µg/mL (≈ 15.7 µM). The same measure, in the same setting: as for `COc1cc(C(=O)Nc2ccc(S(F)(F)(F)(F)F)cc2)ccc1O` [Compound 45, 4-(4-hydroxy-3-methoxybenzoylamino)pentafluorosulfanylbenzene], the figure is 0.51 µg/mL (≈ 1.38 µM).
